# Source: US5204352A, “Compounds exhibiting anti-parasitic activity and a method for their use” (The United States of America as represented by the …, priority 1987, dated 1993)
# System: Trypanosoma rhodesiense
# Assay: In vivo trypanocidal activity in infected mice (protocol based on Rane et al.)
# Parameters: Activity at dosage, value in parentheses (increase in survival): unit not given here
# Conditions: for Activity at dosage (C = Cures) / Activity at dosage, value in parentheses (increase in survival): peritoneal (Table 2)
# Experimental: The compounds of the present invention were evaluated biologically in vivo with groups of 5 mice at various dose levels. Unless otherwise indicated, the data are for subcutaneous administration. Dose levels marked with an asterisk are for peritoneal administration in a HEC+T medium. In addition, Table 2 present results of peritoneal administration with substituted quanylhydrazones. The biological evaluation was done according to a standard protocol based on the method described by Rane et al., Amer. J. Trop. Med Hyg. 25:395 (1976). […]
# [1] = 106* mg/kg, peritoneal in HEC+T medium (Table I)
# [2] = 424* mg/kg, peritoneal in HEC+T medium (Table I)
structure (smiles),measurement,setting,value
CC(=O)Nc1ccc(-c2cn3c([n+]2C)CCCC3)cc1 [BJ51911],Increase in survival,"26.5 mg/kg, subcutaneous",1.2 days
same,"Trypanocidal activity, cures","26.5 mg/kg, subcutaneous",1/10
same,Increase in survival,"53 mg/kg, subcutaneous",6.4 days
same,Increase in survival,"106 mg/kg, subcutaneous",7.4 days
same,"Trypanocidal activity, cures","106 mg/kg, subcutaneous",3/10
CC(=O)Nc1ccc(-c2cn3c4ccccc4ccc3[n+]2C)cc1 [BJ83244],Increase in survival,"212 mg/kg, subcutaneous",8.4 days
same,"Trypanocidal activity, cures","212 mg/kg, subcutaneous",3/5
C[n+]1c(-c2ccc(C(=N)N)cc2)c([N+](=O)[O-])n2ccccc21 [BK42757],Increase in survival,"53 mg/kg, subcutaneous",2.5 days
same,"Trypanocidal activity, cures","53 mg/kg, subcutaneous",1/5
same,Increase in survival,"106 mg/kg, subcutaneous",3.0 days
same,"Trypanocidal activity, cures","106 mg/kg, subcutaneous",1/5
C[n+]1c(-c2ccc(C(=N)N)cc2)cn2ccccc21 [BK16471],Increase in survival,"13.3 mg/kg, subcutaneous",3.2 days
same,"Trypanocidal activity, cures","13.3 mg/kg, subcutaneous",2/10
same,"Trypanocidal activity, cures","26.5 mg/kg, subcutaneous",10/10
same,"Trypanocidal activity, cures","53 mg/kg, subcutaneous",5/5
CN=C(N)NN=Cc1ccc(-c2c([N+](=O)[O-])n3ccccc3[n+]2C)cc1 [BK47958],Increase in survival,"1.66 mg/kg, subcutaneous",3.0 days
same,"Trypanocidal activity, cures","1.66 mg/kg, subcutaneous",8/10
C[n+]1ccccc1COc1ccc(C=NNC2=NCCCN2)cc1 [BL07646],Increase in survival,"1.6 mg/kg, subcutaneous",3.9 days
same,"Trypanocidal activity, cures","1.6 mg/kg, subcutaneous",1/10
same,Increase in survival,"6.6 mg/kg, subcutaneous",9.9 days
same,"Trypanocidal activity, cures","6.6 mg/kg, subcutaneous",3/5
same,Increase in survival,"13 mg/kg, subcutaneous",4.0 days
same,"Trypanocidal activity, cures","13 mg/kg, subcutaneous",9/10
Cc1ccc2n(c1)cc(-c1ccc(C(N)=NO)cc1)[n+]2C [BK13087],Increase in survival,"53 mg/kg, subcutaneous",2.3 days
same,"Trypanocidal activity, cures","53 mg/kg, subcutaneous",2/5
CC(=O)Nc1ccc(-c2cn3cc(I)ccc3[n+]2C)cc1 [BJ83306],Increase in survival,"106 mg/kg, subcutaneous",2.3 days
same,"Trypanocidal activity, cures","106 mg/kg, subcutaneous",3/10
same,Increase in survival,"212 mg/kg, subcutaneous",3.9 days
same,"Trypanocidal activity, cures","212 mg/kg, subcutaneous",1/5
same,Increase in survival,"424 mg/kg, subcutaneous",6.5 days
same,"Trypanocidal activity, cures","424 mg/kg, subcutaneous",4/10
C[n+]1c(-c2ccc(C(=N)N)cc2)cn2ccsc21 [BK21874],Increase in survival,"26.5 mg/kg, subcutaneous",3.6 days
same,"Trypanocidal activity, cures","26.5 mg/kg, subcutaneous",1/10
same,Increase in survival,"53 mg/kg, subcutaneous",2.5 days
same,"Trypanocidal activity, cures","53 mg/kg, subcutaneous",2/5
same,Increase in survival,"106 mg/kg, subcutaneous",12.9 days
same,"Trypanocidal activity, cures","106 mg/kg, subcutaneous",9/10
same,"Trypanocidal activity, cures","212 mg/kg, subcutaneous",5/5
CSC(=N)NN=Cc1ccc(-c2cn3ccccc3[n+]2C)cc1 [BK47921],"Trypanocidal activity, cures","26.5 mg/kg, subcutaneous",5/5
C[n+]1c(-c2ccc(C=NNC(=N)N3CCCC3)cc2)cn2ccccc21 [BK50277],"Trypanocidal activity, cures","0.1 mg/kg, subcutaneous",5/5
same,"Trypanocidal activity, cures","0.2 mg/kg, subcutaneous",4/5
same,"Trypanocidal activity, cures","0.4 mg/kg, subcutaneous",5/5
same,"Trypanocidal activity, cures","0.8 mg/kg, subcutaneous",9/10
same,"Trypanocidal activity, cures","1.7 mg/kg, subcutaneous",10/10
same,"Trypanocidal activity, cures","3.3 mg/kg, subcutaneous",5/5
CCN(CC)CCNC(=N)c1ccc(-c2cn3ccccc3[n+]2C)cc1 [BK23001],Increase in survival,"13.3 mg/kg, subcutaneous",6.6 days
C[n+]1c(-c2ccc(C=NNC(=N)N)cc2)c(Br)n2ccccc21 [BK51907],Activity at dosage (C = Cures),0.8 mg/kg,INAC
same,Activity at dosage (C = Cures),1.7 mg/kg,INAC
same,"Activity at dosage, value in parentheses (increase in survival)",3.3 mg/kg,1.2
same,"Activity at dosage, value in parentheses (increase in survival)",6.7 mg/kg,3.8
same,"Activity at dosage, value in parentheses (increase in survival)",13 mg/kg,7.0
same,"Activity at dosage, value in parentheses (increase in survival)",26 mg/kg,10.0
same,"Activity at dosage, value in parentheses (increase in survival)",424 mg/kg,2.0
C[n+]1c(-c2ccc(C(N)=NO)cc2)cn2ccsc21 [BK16499],Increase in survival,"26 mg/kg, subcutaneous",2.7 days
same,"Trypanocidal activity, cures","26 mg/kg, subcutaneous",2/10
same,Increase in survival,"53 mg/kg, subcutaneous",4.7 days
same,"Trypanocidal activity, cures","53 mg/kg, subcutaneous",2/10
C[n+]1c(C=Cc2ccc(C=NNC3=NCCCN3)cc2)cn2ccccc21 [BL11202],"Trypanocidal activity, cures","0.4 mg/kg, subcutaneous",5/5
same,Increase in survival,"1.6 mg/kg, subcutaneous",6.8 days
same,"Trypanocidal activity, cures","1.6 mg/kg, subcutaneous",9/10
same,"Trypanocidal activity, cures","6.6 mg/kg, subcutaneous",5/5
same,"Trypanocidal activity, cures","26 mg/kg, subcutaneous",15/15
C[n+]1c(-c2ccc(C=NNC(N)=O)cc2)cn2ccccc21 [BJ90730],Increase in survival,"26 mg/kg, subcutaneous",7.7 days
same,"Trypanocidal activity, cures","26 mg/kg, subcutaneous",1/5
same,Increase in survival,"106 mg/kg, subcutaneous",10.9 days
same,"Trypanocidal activity, cures","106 mg/kg, subcutaneous",4/5
same,Increase in survival,[1],1.9 days
same,"Trypanocidal activity, cures",[1],1/10
same,Increase in survival,[2],4.8 days
same,"Trypanocidal activity, cures",[2],3/10
CCN(CC)CCN=C(N)NN=Cc1ccc(-c2cn3ccccc3[n+]2C)cc1 [BK46175],Increase in survival,"0.83 mg/kg, (F), subcutaneous",3.3 days
same,"Trypanocidal activity, cures","0.83 mg/kg, (F), subcutaneous",2/5
same,Increase in survival,"0.83 mg/kg, M, subcutaneous",6.3 days
C[n+]1c(-c2ccc(C=NNC(=N)N)cc2)c([N+](=O)[O-])n2ccccc21 [BK47985],Increase in survival,"1.6 mg/kg, subcutaneous",7.0 days
same,"Trypanocidal activity, cures","1.6 mg/kg, subcutaneous",3/10
same,"Trypanocidal activity, cures","3.3 mg/kg, subcutaneous",5/5
same,Increase in survival,"6.6 mg/kg, subcutaneous",24.0 days
same,"Trypanocidal activity, cures","6.6 mg/kg, subcutaneous",4/5
CN(C)C(=N)NN=Cc1ccc(-c2c([N+](=O)[O-])n3ccccc3[n+]2C)cc1 [BK50268],Activity at dosage (C = Cures),3.3 mg/kg,INAC
same,Activity at dosage (C = Cures),6.7 mg/kg,INAC
same,"Activity at dosage, value in parentheses (increase in survival)",13 mg/kg,4.5
same,"Activity at dosage, value in parentheses (increase in survival)",26 mg/kg,5.0
same,"Activity at dosage, value in parentheses (increase in survival)",53 mg/kg,9.9
same,"Activity at dosage, value in parentheses (increase in survival)",106 mg/kg,12.5
Cc1ccn2cc(-c3ccc(C=NNC(=N)N)cc3)[n+](C)c2c1 [BK46219],Increase in survival,"26.5 mg/kg, subcutaneous",10.0 days
same,"Trypanocidal activity, cures","26.5 mg/kg, subcutaneous",8/10
C[n+]1c(COc2ccc(C=NNC(=N)NO)cc2)cn2ccccc21 [BK75087],Increase in survival,"0.2 mg/kg, subcutaneous",5.9 days
same,"Trypanocidal activity, cures","0.2 mg/kg, subcutaneous",2/5
same,Increase in survival,"0.4 mg/kg, subcutaneous",10 days
same,"Trypanocidal activity, cures","0.4 mg/kg, subcutaneous",3/5
same,"Trypanocidal activity, cures","0.8 mg/kg, subcutaneous",10/10
same,"Trypanocidal activity, cures","6.6 mg/kg, subcutaneous",5/5
CN=C(N)NN=Cc1ccc(-c2cn3ccsc3[n+]2C)cc1 [BK47967],"Trypanocidal activity, cures","6.66 mg/kg, subcutaneous",5/5
Cc1ccc2n(c1)cc(-c1ccc(C=NNc3nc[nH]n3)cc1)[n+]2C [BK51961],Activity at dosage (C = Cures),13 mg/kg,INAC
same,Activity at dosage (C = Cures),26 mg/kg,INAC
same,Activity at dosage (C = Cures),53 mg/kg,INAC
same,"Activity at dosage, value in parentheses (increase in survival)",106 mg/kg,5.5
same,"Activity at dosage, value in parentheses (increase in survival)",212 mg/kg,6.3
same,"Activity at dosage, value in parentheses (increase in survival)",424 mg/kg,6.0
C=CC[n+]1c(-c2ccc(NC(C)=O)cc2)cn2ccccc21 [BJ58296],Increase in survival,"26.5 mg/kg, subcutaneous",5.0 days
same,"Trypanocidal activity, cures","26.5 mg/kg, subcutaneous",7/10
C[n+]1c(-c2ccc(C=NNC3=NCCN3)cc2)cn2ccsc21 [BK62620],Increase in survival,"13.3 mg/kg, subcutaneous",28.0 days
same,"Trypanocidal activity, cures","13.3 mg/kg, subcutaneous",9/10
C=CC[n+]1c(-c2ccc(C=NNc3ncn[nH]3)cc2)cn2ccccc21 [BK24017],Increase in survival,"26 mg/kg, subcutaneous",2.3 days
same,"Trypanocidal activity, cures","26 mg/kg, subcutaneous",4/10
same,Increase in survival,"53 mg/kg, subcutaneous",4.6 days
CC(=O)Nc1ccc(-c2cn3c(C)cc(C)cc3[n+]2C)cc1 [BJ90703],Increase in survival,"26 mg/kg, subcutaneous",8.9 days
same,"Trypanocidal activity, cures","26 mg/kg, subcutaneous",1/5
same,Increase in survival,"106 mg/kg, subcutaneous",2.9 days
same,"Trypanocidal activity, cures","106 mg/kg, subcutaneous",4/5
same,Increase in survival,"424 mg/kg, subcutaneous",9.4 days
same,"Trypanocidal activity, cures","424 mg/kg, subcutaneous",3/5
same,Increase in survival,[2],3.4 days
same,"Trypanocidal activity, cures",[2],1/5
CC(=O)Nc1ccc(-c2cn3cc(C)ccc3[n+]2C)cc1 [BJ84938],Increase in survival,"106 mg/kg, subcutaneous",1.3 days
same,"Trypanocidal activity, cures","106 mg/kg, subcutaneous",1/10
same,Increase in survival,"212 mg/kg, subcutaneous",5.9 days
same,"Trypanocidal activity, cures","212 mg/kg, subcutaneous",1/5
same,Increase in survival,"424 mg/kg, subcutaneous",8.5 days
same,"Trypanocidal activity, cures","424 mg/kg, subcutaneous",7/10
Cn1cc(-c2ccc(C=NNC(N)=O)cc2)[n+](C)c1 [BK23994],Increase in survival,"424 mg/kg, subcutaneous",5.8 days
CCN=C(NCC)NN=Cc1ccc(OCc2cn3ccccc3[n+]2C)cc1 [BL03933],Increase in survival,"1.6 mg/kg, subcutaneous",6.3 days
same,"Trypanocidal activity, cures","1.6 mg/kg, subcutaneous",7/10
same,"Trypanocidal activity, cures","3.3 mg/kg, subcutaneous",5/5
same,"Trypanocidal activity, cures","6.6 mg/kg, subcutaneous",5/5
C[n+]1c(-c2ccc(C=NNC(=N)N)cc2)cn2cc(Cl)ccc21 [BK13069],"Trypanocidal activity, cures","6.65 mg/kg, subcutaneous",5/5
